ChEMBL document CHEMBL4622979, “Non-rigid Diarylmethyl Analogs of Baloxavir as Cap-Dependent Endonuclease Inhibitors of Influenza Viruses” (J Med Chem, 2020)

What was measured:
[1] = Cytotoxicity against human HepG2 cells assessed as reduction in cell viability measured after 24 hrs in presence of galactose by MTT assay; type: cell-based
[2] = Acute toxicity in CD1 mouse assessed as effect on kidney at 2000 mg/kg, po measured after 2 weeks by macroscopic analysis; type: organism-based; conditions: in vivo, 336 h
[3] = Acute toxicity in CD1 mouse assessed as effect on spleen at 2000 mg/kg, po measured after 2 weeks by macroscopic analysis; type: organism-based; conditions: in vivo, 336 h
[4] = AUClast in CD1 mouse plasma assessed as (12aR)-12-(Diphenylmethyl)-7-hydroxy-3,4,12,12a-tetrahydro-1H-[1,4]oxazino[3,4-c]pyrido[2,1-f ][1,2,4]triazine-6,8-dione level at 15 mg/kg, po administered as single dose by LC-MS/MS analysis; type: ADME, organism-based; design: dose 15 mg/kg, time 0 - last, route oral; conditions: in vivo
[5] = AUClast in CD1 mouse lung assessed as (12aR)-12-(Diphenylmethyl)-7-hydroxy-3,4,12,12a-tetrahydro-1H-[1,4]oxazino[3,4-c]pyrido[2,1-f ][1,2,4]triazine-6,8-dione level at 15 mg/kg, po administered as single dose by LC-MS/MS analysis; type: ADME, organism-based; conditions: in vivo
[6] = Cmax in CD1 mouse plasma assessed as (12aR)-12-(Diphenylmethyl)-7-hydroxy-3,4,12,12a-tetrahydro-1H-[1,4]oxazino[3,4-c]pyrido[2,1-f ][1,2,4]triazine-6,8-dione level at 15 mg/kg, po administered as single dose measured up to 24 hrs by LC-MS/MS analysis; type: ADME, organism-based; design: dose 15 mg/kg, route oral; conditions: in vivo
[7] = Tmax in CD1 mouse liver assessed as (12aR)-12-(Diphenylmethyl)-7-hydroxy-3,4,12,12a-tetrahydro-1H-[1,4]oxazino[3,4-c]pyrido[2,1-f ][1,2,4]triazine-6,8-dione level at 15 mg/kg, po administered as single dose measured up to 24 hrs by LC-MS/MS analysis; type: ADME, organism-based; conditions: in vivo
[8] = MRTlast in CD1 mouse liver assessed as (12aR)-12-(Diphenylmethyl)-7-hydroxy-3,4,12,12a-tetrahydro-1H-[1,4]oxazino[3,4-c]pyrido[2,1-f ][1,2,4]triazine-6,8-dione level at 15 mg/kg, po administered as single dose measured up to 24 hrs by LC-MS/MS analysis; type: ADME, organism-based; conditions: in vivo
[9] = Elimination rate constant in CD1 mouse kidney assessed as (12aR)-12-(Diphenylmethyl)-7-hydroxy-3,4,12,12a-tetrahydro-1H-[1,4]oxazino[3,4-c]pyrido[2,1-f ][1,2,4]triazine-6,8-dione level at 15 mg/kg, po administered as single dose measured up to 24 hrs by LC-MS/MS analysis; type: ADME, organism-based; conditions: in vivo
[10] = AUCinfinity in CD1 mouse kidney assessed as (12aR)-12-(Diphenylmethyl)-7-hydroxy-3,4,12,12a-tetrahydro-1H-[1,4]oxazino[3,4-c]pyrido[2,1-f ][1,2,4]triazine-6,8-dione level at 15 mg/kg, po administered as single dose measured up to 24 hrs by LC-MS/MS analysis; type: ADME, organism-based; design: dose 15 mg/kg, time infinity, route oral; conditions: in vivo
[11] = AUCinfinity in CD1 mouse heart assessed as (12aR)-12-(Diphenylmethyl)-7-hydroxy-3,4,12,12a-tetrahydro-1H-[1,4]oxazino[3,4-c]pyrido[2,1-f ][1,2,4]triazine-6,8-dione level at 15 mg/kg, po administered as single dose measured up to 24 hrs by LC-MS/MS analysis; type: ADME, organism-based; design: dose 15 mg/kg, time infinity, route oral; conditions: in vivo
[12] = Half life in CD1 mouse lung assessed as (12aR)-12-(Diphenylmethyl)-7-hydroxy-3,4,12,12a-tetrahydro-1H-[1,4]oxazino[3,4-c]pyrido[2,1-f ][1,2,4]triazine-6,8-dione level at 15 mg/kg, po administered as single dose measured up to 24 hrs by LC-MS/MS analysis; type: ADME, organism-based; conditions: in vivo
[13] = AUCinfinity in CD1 mouse small intestine assessed as (12aR)-12-(Diphenylmethyl)-7-hydroxy-3,4,12,12a-tetrahydro-1H-[1,4]oxazino[3,4-c]pyrido[2,1-f ][1,2,4]triazine-6,8-dione level at 15 mg/kg, po administered as single dose measured up to 24 hrs by LC-MS/MS analysis; type: ADME, organism-based; design: dose 15 mg/kg, route oral, time infinity; conditions: in vivo
[14] = Ratio of AUClast in CD1 mouse brain to plasma assessed as (12aR)-12-(Diphenylmethyl)-7-hydroxy-3,4,12,12a-tetrahydro-1H-[1,4]oxazino[3,4-c]pyrido[2,1-f ][1,2,4]triazine-6,8-dione level at 15 mg/kg, po administered as single dose measured up to 24 hrs by LC-MS/MS analysis; type: ADME, organism-based
[15] = AUCinfinity in CD1 mouse spleen assessed as (12aR)-12-(Diphenylmethyl)-7-hydroxy-3,4,12,12a-tetrahydro-1H-[1,4]oxazino[3,4-c]pyrido[2,1-f ][1,2,4]triazine-6,8-dione level at 15 mg/kg, po administered as single dose measured up to 24 hrs by LC-MS/MS analysis; type: ADME, organism-based; design: dose 15 mg/kg, route oral, time infinity; conditions: in vivo
[16] = AUClast in CD1 mouse muscle assessed as (12aR)-12-(Diphenylmethyl)-7-hydroxy-3,4,12,12a-tetrahydro-1H-[1,4]oxazino[3,4-c]pyrido[2,1-f ][1,2,4]triazine-6,8-dione level at 15 mg/kg, po administered as single dose measured up to 24 hrs by LC-MS/MS analysis; type: ADME, organism-based, Muscle tissue; conditions: in vivo
[17] = Cmax in CD1 mouse lung assessed as baloxavir acid level at 15 mg/kg, po administered as single dose by LC-MS/MS analysis; type: ADME, organism-based; design: dose 15 mg/kg, route oral; conditions: in vivo
[18] = Half life in CD1 mouse plasma assessed as baloxavir acid level at 15 mg/kg, po administered as single dose measured up to 24 hrs by LC-MS/MS analysis; type: ADME, organism-based; conditions: in vivo
[19] = Elimination rate constant in CD1 mouse kidney assessed as baloxavir acid level at 15 mg/kg, po administered as single dose measured up to 24 hrs by LC-MS/MS analysis; type: ADME, organism-based; conditions: in vivo
[20] = AUCinfinity in CD1 mouse heart assessed as baloxavir acid level at 15 mg/kg, po administered as single dose measured up to 24 hrs by LC-MS/MS analysis; type: ADME, organism-based; design: dose 15 mg/kg, time infinity, route oral; conditions: in vivo
[21] = MRTlast in CD1 mouse lung assessed as baloxavir acid level at 15 mg/kg, po administered as single dose measured up to 24 hrs by LC-MS/MS analysis; type: ADME, organism-based; conditions: in vivo
[22] = Cmax in CD1 mouse small intestine assessed as baloxavir acid level at 15 mg/kg, po administered as single dose measured up to 24 hrs by LC-MS/MS analysis; type: ADME, organism-based; design: dose 15 mg/kg, route oral; conditions: in vivo
[23] = Ratio of AUClast in CD1 mouse brain to plasma assessed as baloxavir acid level at 15 mg/kg, po administered as single dose measured up to 24 hrs by LC-MS/MS analysis; type: ADME, organism-based
[24] = MRTlast in CD1 mouse spleen assessed as baloxavir acid level at 15 mg/kg, po administered as single dose measured up to 24 hrs by LC-MS/MS analysis; type: ADME, organism-based; conditions: in vivo
[25] = AUClast in CD1 mouse muscle assessed as baloxavir acid level at 15 mg/kg, po administered as single dose measured up to 24 hrs by LC-MS/MS analysis; type: ADME, organism-based, Muscle tissue; conditions: in vivo

COC(=O)OCOc1c2n(ccc1=O)N(C(c1ccccc1)c1ccccc1)[C@@H]1COCCN1C2=O
CC50 at 24 h [1]: 57 µM | Activity [2]: Non-Toxic | Activity [3]: Non-Toxic | AUClast [4]: 3935 ng·h/mL | AUClast [5]: 11923 ng·h/g | Cmax [6]: 1251 ng/mL | Tmax [7]: 0.5 h | MRTlast [8]: 2.31 h | Kel [9]: 0.27 h⁻¹ | AUC [10]: 18087 ng·h/g | AUC [11]: 11444 ng·h/g | t1/2 [12]: 1.57 h | AUC [13]: 44252 ng·h/g | Ratio AUC [14]: 0.19 | AUC [15]: 4713 ng·h/g | AUClast [16]: 7425 ng·h/g

COC(=O)OCOc1c2n(ccc1=O)N([C@@H]1c3ccccc3SCc3c1ccc(F)c3F)[C@@H]1COCCN1C2=O [BALOXAVIR MARBOXIL]
Cmax [17]: 1517 ng/g | t1/2 [18]: 3.8 h | Kel [19]: 0.21 h⁻¹ | AUC [20]: 9025 ng·h/g | MRTlast [21]: 4.84 h | Cmax [22]: 53413 ng/g | Ratio AUC [23]: 0.7 | MRTlast [24]: 5.54 h | AUClast [25]: 4716 ng·h/g
